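Tested at 5 concentrations; 48 h exposure; 96-well plates; endpoints linearly interpolated, else capped at highest concentration. GI50 is the concentration that inhibits growth by half.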 Activity calls are given as the source filed them. Rule as the data show it: active = GI50 up to about 1.1 µM and inactive = higher.
Key:
Assay in all cases: NCI-60 cell line screen, 48 h
OVCAR-5 = system: OVCAR-5
OVCAR-8 = system: OVCAR-8
SK-MEL-28 = system: SK-MEL-28
SK-MEL-5 = system: SK-MEL-5
MDA-N = system: MDA-N
UACC-257 = system: UACC-257
HOP-62 = system: HOP-62
BT-549 = system: BT-549
K562 = system: K562
UO-31 = system: UO-31
HCC 2998 = system: HCC 2998
MDA-MB-231 = system: MDA-MB-231
SW-620 = system: SW-620
U-251 = system: U-251
NCI/ADR-RES = system: NCI/ADR-RES
SF-539 = system: SF-539
SK-MEL-2 = system: SK-MEL-2
DU-145 = system: DU-145
MOLT-4 = system: MOLT-4
NCI-H460 = system: NCI-H460
SF-268 = system: SF-268
EKVX = system: EKVX
UACC-62 = system: UACC-62
SF-295 = system: SF-295
SK-OV-3 = system: SK-OV-3
SN12C = system: SN12C
ACHN = system: ACHN
RPMI-8226 = system: RPMI-8226
A498 = system: A498
A549 = system: A549
TK-10 = system: TK-10
786-0 = system: 786-0
HCT-15 = system: HCT-15
T47D = system: T47D
SNB-19 = system: SNB-19
MDA-MB-435 = system: MDA-MB-435
CAKI-1 = system: CAKI-1
HOP-92 = system: HOP-92
OVCAR-4 = system: OVCAR-4
HL-60 = system: HL-60
KM12 = system: KM12
OVCAR-3 = system: OVCAR-3
MCF7 = system: MCF7
NCI-H226 = system: NCI-H226
SNB-75 = system: SNB-75
COLO 205 = system: COLO 205
PC-3 = system: PC-3
HCT-116 = system: HCT-116
M14 = system: M14
RXF 393 = system: RXF 393
LOX IMVI = system: LOX IMVI
NCI-H23 = system: NCI-H23
CCRF-CEM = system: CCRF-CEM
Hs-578T = system: Hs-578T
IGROV-1 = system: IGROV-1
Malme-3M = system: Malme-3M
HT-29 = system: HT-29
NCI-H522 = system: NCI-H522

Structure (SMILES): Cc1cccc2c(N)c3cccc(C(=O)NCC[N+](C)(C)Cc4ccc(S(C)(=O)=O)cc4)c3nc12
- GI50 (OVCAR-5): > 95.1 µM (inactive)
- GI50 (OVCAR-8): 79.6 µM (inactive)
- GI50 (SK-MEL-28): > 100 µM (inactive)
- GI50 (SK-MEL-5): 70.5 µM (inactive)
- GI50 (MDA-N): > 100 µM (inactive)
- GI50 (UACC-257): > 100 µM (inactive)
- GI50 (HOP-62): 27.7 µM (inactive)
- GI50 (BT-549): > 100 µM (inactive)
- GI50 (K562): 10.1 µM (inactive)
- GI50 (UO-31): 75.9 µM (inactive)
- GI50 (HCC 2998): 46.7 µM (inactive)
- GI50 (MDA-MB-231): > 81.3 µM (inactive)
- GI50 (SW-620): 56.4 µM (inactive)
- GI50 (U-251): 45.6 µM (inactive)
- GI50 (NCI/ADR-RES): > 100 µM (inactive)
- GI50 (SF-539): 32.4 µM (inactive)
- GI50 (SK-MEL-2): 98.4 µM (inactive)
- GI50 (DU-145): 50 µM (inactive)
- GI50 (MOLT-4): 2.02 µM (inactive)
- GI50 (NCI-H460): 4.3 µM (inactive)
- GI50 (SF-268): 25.1 µM (inactive)
- GI50 (EKVX): > 91.2 µM (inactive)
- GI50 (UACC-62): > 95.9 µM (inactive)
- GI50 (SF-295): 89.1 µM (inactive)
- GI50 (SK-OV-3): 33.6 µM (inactive)
- GI50 (SN12C): 2.9 µM (inactive)
- GI50 (ACHN): 31.4 µM (inactive)
- GI50 (RPMI-8226): 5.61 µM (inactive)
- GI50 (A498): 10.8 µM (inactive)
- GI50 (A549): 1.44 µM (inactive)
- GI50 (TK-10): > 89.1 µM (inactive)
- GI50 (786-0): 28 µM (inactive)
- GI50 (HCT-15): > 100 µM
- GI50 (T47D): 59.7 µM (inactive)
- GI50 (SNB-19): 18.7 µM (inactive)
- GI50 (MDA-MB-435): > 100 µM (inactive)
- GI50 (CAKI-1): 26.1 µM (inactive)
- GI50 (HOP-92): 70 µM (inactive)
- GI50 (OVCAR-4): 41.4 µM (inactive)
- GI50 (HL-60): 2.8 µM (inactive)
- GI50 (KM12): 64.6 µM (inactive)
- GI50 (OVCAR-3): 67 µM (inactive)
- GI50 (MCF7): 11.5 µM (inactive)
- GI50 (NCI-H226): 98.2 µM (inactive)
- GI50 (SNB-75): 10.8 µM (inactive)
- GI50 (COLO 205): 47.1 µM (inactive)
- GI50 (PC-3): 44.2 µM (inactive)
- GI50 (HCT-116): 36.5 µM (inactive)
- GI50 (M14): > 100 µM (inactive)
- GI50 (RXF 393): 76.7 µM (inactive)
- GI50 (LOX IMVI): 28.8 µM (inactive)
- GI50 (NCI-H23): 21.8 µM (inactive)
- GI50 (CCRF-CEM): 7.03 µM (inactive)
- GI50 (Hs-578T): 19.9 µM (inactive)
- GI50 (IGROV-1): 27.9 µM (inactive)
- GI50 (Malme-3M): 38.5 µM (inactive)
- GI50 (HT-29): 36.6 µM (inactive)

Structure (SMILES): CC/C=N\N1C(N)=C(C#N)C(C#N)(C#N)C1CC (stereo not drawn)
- GI50 (OVCAR-5): > 100 µM (inactive)
- GI50 (OVCAR-8): 44.9 µM (inactive)
- GI50 (SK-MEL-28): 56.2 µM (inactive)
- GI50 (SK-MEL-5): 53.1 µM (inactive)
- GI50 (MDA-N): 53.5 µM (inactive)
- GI50 (UACC-257): > 100 µM (inactive)
- GI50 (HOP-62): > 100 µM (inactive)
- GI50 (BT-549): > 100 µM (inactive)
- GI50 (K562): 52.7 µM (inactive)
- GI50 (UO-31): > 100 µM (inactive)
- GI50 (HCC 2998): > 100 µM (inactive)
- GI50 (MDA-MB-231): > 100 µM (inactive)
- GI50 (SW-620): 61.7 µM (inactive)
- GI50 (U-251): 58.6 µM (inactive)
- GI50 (NCI/ADR-RES): 92 µM (inactive)
- GI50 (SF-539): 26.2 µM (inactive)
- GI50 (SK-MEL-2): > 100 µM (inactive)
- GI50 (DU-145): > 100 µM (inactive)
- GI50 (MOLT-4): 39 µM (inactive)
- GI50 (SF-268): > 100 µM (inactive)
- GI50 (EKVX): > 100 µM (inactive)
- GI50 (UACC-62): 59.4 µM (inactive)
- GI50 (SF-295): > 100 µM (inactive)
- GI50 (SK-OV-3): > 100 µM (inactive)
- GI50 (SN12C): > 100 µM (inactive)
- GI50 (ACHN): > 100 µM (inactive)
- GI50 (NCI-H522): > 100 µM (inactive)
- GI50 (RPMI-8226): 83 µM (inactive)
- GI50 (A498): > 100 µM (inactive)
- GI50 (A549): > 100 µM (inactive)
- GI50 (TK-10): > 100 µM (inactive)
- GI50 (786-0): > 100 µM (inactive)
- GI50 (HCT-15): 54.2 µM
- GI50 (T47D): > 100 µM (inactive)
- GI50 (SNB-19): > 100 µM (inactive)
- GI50 (MDA-MB-435): 50.6 µM (inactive)
- GI50 (CAKI-1): > 100 µM (inactive)
- GI50 (OVCAR-4): 91.2 µM (inactive)
- GI50 (HL-60): 35.8 µM (inactive)
- GI50 (KM12): > 100 µM (inactive)
- GI50 (OVCAR-3): > 100 µM (inactive)
- GI50 (MCF7): 36.5 µM (inactive)
- GI50 (NCI-H226): > 100 µM (inactive)
- GI50 (SNB-75): 81.8 µM (inactive)
- GI50 (COLO 205): > 100 µM (inactive)
- GI50 (PC-3): > 100 µM (inactive)
- GI50 (HCT-116): 10.8 µM (inactive)
- GI50 (M14): > 100 µM (inactive)
- GI50 (RXF 393): > 100 µM (inactive)
- GI50 (LOX IMVI): 49 µM (inactive)
- GI50 (NCI-H23): > 100 µM (inactive)
- GI50 (CCRF-CEM): 36.1 µM (inactive)
- GI50 (Hs-578T): > 100 µM (inactive)
- GI50 (IGROV-1): 63.1 µM (inactive)
- GI50 (Malme-3M): > 100 µM (inactive)
- GI50 (HT-29): 28.8 µM (inactive)
